Experimental data taken from PubChem BioAssay (NCI).
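Assay format: 96-well plates, 48-hour exposure. TGI denotes the concentration required for complete inhibition of growth.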

Legend:
Experiment in all cases: NCI tumour cell line growth inhibition, 48 h
SNB-75 CNS = tested on: SNB-75 CNS
NCI-H460 lung = tested on: NCI-H460 lung
HT29 colon = tested on: HT29 colon
BT-549 breast = tested on: BT-549 breast
EKVX NSCLC = tested on: EKVX NSCLC
MDA-MB-435 = tested on: MDA-MB-435
MOLT-4 leukemia = tested on: MOLT-4 leukemia
SR leukemia = tested on: SR leukemia
HS 578T breast = tested on: HS 578T breast
DU-145 prostate = tested on: DU-145 prostate
NCI/ADR-RES ovarian = tested on: NCI/ADR-RES ovarian
PC-3 prostate = tested on: PC-3 prostate
HOP-18 NSCLC = tested on: HOP-18 NSCLC
DMS 273 small cell lung = tested on: DMS 273 small cell lung
DLD-1 colon = tested on: DLD-1 colon
XF 498 CNS = tested on: XF 498 CNS
DMS 114 small cell lung = tested on: DMS 114 small cell lung
SN12K1 renal = tested on: SN12K1 renal
SNB-78 CNS = tested on: SNB-78 CNS
P388 leukemia = tested on: P388 leukemia

Row | Structure (SMILES) | TGI (SNB-75 CNS) [µM] | TGI (NCI-H460 lung) [µM] | TGI (HT29 colon) [µM] | TGI (BT-549 breast) [µM] | TGI (EKVX NSCLC) [µM] | TGI (MDA-MB-435) [µM] | TGI (MOLT-4 leukemia) [µM] | TGI (SR leukemia) [µM] | TGI (HS 578T breast) [µM] | TGI (DU-145 prostate) [µM] | TGI (NCI/ADR-RES ovarian) [µM] | TGI (PC-3 prostate) [µM] | TGI (HOP-18 NSCLC) [µM] | TGI (DMS 273 small cell lung) [µM] | TGI (DLD-1 colon) [µM] | TGI (XF 498 CNS) [µM] | TGI (DMS 114 small cell lung) [µM] | TGI (SN12K1 renal) [µM] | TGI (SNB-78 CNS) [µM] | TGI (P388 leukemia) [µM]
1 | O=C1CC(=O)c2c(O)cc(O)c(c2O)-c2c(ccc(O)c2O)C2=CC(=O)c3c(O)cc(O)c(c3O2)-c2c1ccc(O)c2O (tested in a mixture with another compound) | > 50 | > 50 | > 50 | > 50 | > 50 | > 50 | > 50 | > 50 | > 50 | > 50 | > 50 | > 50 |  |  |  |  |  |  |  | 
2 | O=C(CC/C=C(/CS(=O)(=O)c1ccccc1)S(=O)(=O)c1ccccc1)c1ccccc1 | > 100 | > 100 | > 100 |  | > 100 |  | > 100 | > 100 |  |  |  |  | > 100 | > 100 | > 100 | > 100 | 83.4 |  |  | 
3 | Nc1nc2c(c(=O)[nH]1)N(C=O)C(CNc1ccc(C(=O)N[C@@H](CCC(=O)O)C(=O)O)cc1)CN2 (some centres undefined) | > 125 | > 125 | > 125 |  | > 125 |  | > 125 |  |  |  | > 125 |  | > 125 | > 125 | > 125 |  | > 125 | > 125 | > 125 | > 125
4 | CC(=O)OCC1OC(n2cc(F)c(=O)[nH]c2=O)C(N)C(OC(C)=O)C1OC(C)=O (centres undefined) | > 100 | > 100 | > 100 |  | > 100 |  | > 100 |  |  |  | > 100 |  | > 100 | > 100 | > 100 | > 100 | > 100 | > 100 | > 100 | > 100
5 | CCOC(=O)c1sc2nc(SC)nc3c2c1NC(=O)CN3c1cccc(F)c1 |  | > 100 | > 100 | 21.3 | > 100 | > 100 | 67.7 | > 100 | 59.7 | 52.7 |  | 34.4 |  |  |  |  |  |  |  | 
6 | C/C(=N\NS(=O)(=O)c1ccccc1)c1ccccc1 | > 100 | > 100 | > 100 |  | > 100 |  | > 100 |  |  |  | > 100 |  | > 100 | > 100 | > 100 | > 100 | > 100 | > 100 | > 100 | > 100
7 | CC(=O)NCCC1CN(C(=O)/C=C\C#C[Si](C)(C)C)c2ccccc21 (centres undefined) |  | > 100 | 58.9 | > 100 | 37.5 | > 100 | > 100 |  | > 100 | > 100 | 54.6 | > 100 |  |  |  |  |  |  |  | 
